According to patent US8399502B2, “Analogs of indole-3-carbinol and their use as agents against infection” (priority 2008, dated 2013):
Values after ≈ are worked out from the molar mass of the structure shown.

Columns and labels:
Assay in all cases: microbe, parasite or virus in culture
Format in all cases: cell-based
[1] = test system: Francisella tularensis (FT; Gram-negative); conditions: read-out: MIC FT
[2] = test system: Yersinia pestis (YP; Gram-negative); conditions: read-out: MIC YP
[3] = test system: Bacillus anthracis (BA; Gram-positive); conditions: read-out: MIC BA
[4] = test system: Brucella abortus (BAB; Gram-negative); conditions: read-out: MIC BAB
[5] = test system: Burkholderia pseudomallei (BP; Gram-negative); conditions: read-out: MIC BP
[6] = test system: Burkholderia mallei (BM; Gram-negative); conditions: read-out: MIC BM

| Compound | MIC [1] [µg/mL] | MIC [2] [µg/mL] | MIC [3] [µg/mL] | MIC [4] [µg/mL] | MIC [5] [µg/mL] | MIC [6] [µg/mL] |
| --- | --- | --- | --- | --- | --- | --- |
| Clc1ccc2[nH]c3c(OCCCNC4CCNCC4)c4[nH]c5ccc(Cl)cc5c4cc3c2c1 | 1 (≈ 2.08 µM) | 2 (≈ 4.15 µM) | 1 (≈ 2.08 µM) | 1 (≈ 2.08 µM) | 8 (≈ 16.6 µM) | 4 (≈ 8.31 µM) |
| Clc1ccc2[nH]c3c(OCCCn4cncn4)c4[nH]c5ccc(Cl)cc5c4cc3c2c1 | 0.25 (≈ 0.555 µM) | – | 0.5 (≈ 1.11 µM) | – | – | – |
| Clc1ccc2[nH]c3c(OCCCn4cnnc4)c4[nH]c5ccc(Cl)cc5c4cc3c2c1 | 0.5 (≈ 1.11 µM) | – | 0.25 (≈ 0.555 µM) | – | – | – |
| CN(C)C1CCN(CCOc2c3[nH]c4ccc(F)cc4c3cc3c2[nH]c2ccc(F)cc23)C1 (centres unmarked) | 0.5 (≈ 1.11 µM) | > 8 | 1 (≈ 2.23 µM) | 0.5 (≈ 1.11 µM) | – | – |
| OC1CN(CCCOc2c3[nH]c4ccc(Cl)cc4c3cc3c2[nH]c2ccc(Cl)cc23)C1 | 0.5 (≈ 1.1 µM) | 4 (≈ 8.8 µM) | 0.5 (≈ 1.1 µM) | 1 (≈ 2.2 µM) | – | – |
| CC(C)/N=C(/NCCCOc1c2[nH]c3ccc(F)cc3c2cc2c1[nH]c1ccc(F)cc12)NC(C)C | 1 (≈ 2.03 µM) | 4 (≈ 8.14 µM) | 0.5 (≈ 1.02 µM) | 1 (≈ 2.03 µM) | – | – |
| CC/N=C(/NCCCOc1c2[nH]c3ccc(Cl)cc3c2cc2c1[nH]c1ccc(Cl)cc12)NCCCN(C)C | 1 (≈ 1.81 µM) | 1 (≈ 1.81 µM) | ≤ 0.25 | 1 (≈ 1.81 µM) | 4 (≈ 7.23 µM) | 4 (≈ 7.23 µM) |
| Clc1ccc2[nH]c3c(OCCC4CCNCC4)c4[nH]c5ccc(Cl)cc5c4cc3c2c1 | 0.5 (≈ 1.11 µM) | 1 (≈ 2.21 µM) | ≤ 0.25 | ≤ 0.25 | > 8 | 4 (≈ 8.84 µM) |
| Fc1ccc2[nH]c3c(OC4CCNC4)c4[nH]c5ccc(F)cc5c4cc3c2c1 (centres unmarked) | 0.5 (≈ 1.32 µM) | 1 (≈ 2.65 µM) | ≤ 0.25 | ≤ 0.25 | 4 (≈ 10.6 µM) | 2 (≈ 5.3 µM) |
| Clc1ccc2[nH]c3c(OCCCNCc4c[nH]c5ccccc45)c4[nH]c5ccc(Cl)cc5c4cc3c2c1 | 1 (≈ 1.9 µM) | 2 (≈ 3.79 µM) | 1 (≈ 1.9 µM) | 0.5 (≈ 0.948 µM) | > 8 | > 8 |
| Clc1ccc2[nH]c3c(OCCCNCc4ccc[nH]4)c4[nH]c5ccc(Cl)cc5c4cc3c2c1 | 0.5 (≈ 1.05 µM) | 2 (≈ 4.19 µM) | 0.5 (≈ 1.05 µM) | 0.5 (≈ 1.05 µM) | > 8 | > 8 |
| Clc1ccc2[nH]c3c(OCCCNCc4ncc[nH]4)c4[nH]c5ccc(Cl)cc5c4cc3c2c1 | 1 (≈ 2.09 µM) | 2 (≈ 4.18 µM) | 1 (≈ 2.09 µM) | 0.5 (≈ 1.05 µM) | > 8 | > 8 |
| Fc1ccc2[nH]c3c(OC[C@H]4CCCN4)c4[nH]c5ccc(F)cc5c4cc3c2c1 | 0.5 (≈ 1.28 µM) | 2 (≈ 5.11 µM) | 0.5 (≈ 1.28 µM) | 0.5 (≈ 1.28 µM) | 8 (≈ 20.4 µM) | 8 (≈ 20.4 µM) |
| Fc1ccc2[nH]c3c(OC4CCCNC4)c4[nH]c5ccc(F)cc5c4cc3c2c1 (centres unmarked) | 1 (≈ 2.55 µM) | 4 (≈ 10.2 µM) | 0.5 (≈ 1.28 µM) | 0.5 (≈ 1.28 µM) | > 8 | 8 (≈ 20.4 µM) |
| N[C@H]1CC[C@@H](Oc2c3[nH]c4ccc(F)cc4c3cc3c2[nH]c2ccc(F)cc23)CC1 | 1 (≈ 2.47 µM) | 4 (≈ 9.87 µM) | 0.5 (≈ 1.23 µM) | 0.5 (≈ 1.23 µM) | > 8 | > 8 |
| Clc1ccc2[nH]c3c(OCCCNCc4cnc[nH]4)c4[nH]c5ccc(Cl)cc5c4cc3c2c1 | 1 (≈ 2.09 µM) | 4 (≈ 8.36 µM) | 0.5 (≈ 1.05 µM) | 0.5 (≈ 1.05 µM) | – | – |
| NCCOc1c2[nH]c3ccc(F)cc3c2cc2c1[nH]c1ccc(F)cc12 | 2 (≈ 5.69 µM) | 4 (≈ 11.4 µM) | 4 (≈ 11.4 µM) | 1 (≈ 2.85 µM) | 16 (≈ 45.5 µM) | 8 (≈ 22.8 µM) |
| Clc1ccc2[nH]c3c(O[C@@H]4CCNC4)c4[nH]c5ccc(Cl)cc5c4cc3c2c1 | ≤ 0.25 | 1 (≈ 2.44 µM) | ≤ 0.25 | ≤ 0.25 | > 8 | 2 (≈ 4.87 µM) |
